{"source": "patent US20060286167A1", "about": "“Compositions and methods for the treatment of neurodegenerative diseases” (priority 2005, published 2006)", "system": "SMN protein in SMA patient fibroblasts (GM03813)", "experiment": "SMN cytoblot assay (SMN protein levels in SMA patient fibroblasts)", "assay_type": "cell-based, human", "excerpt": "One method for monitoring SMN protein levels in cells is through use of a cytoblot assay, in which cells are fixed and probed with an antibody against a target protein of interest. We have used a cytoblot assay to determine the concentration of SMN protein in SMA patient fibroblasts, and have identified small molecules that increase SMN protein concentration.\nUsing the cytoblot assay, we can clearly distinguish SMN protein levels in patient (GM03813) versus carrier fibroblast cells (GM03814), as shown in the FIGS. 1A and 1B.\n• 1. Plate 50 μl per well of 300,000 cells/ml (15,000 cells per well) into Nunc white 384-well opaque-bottomed plates. • 2. Incubate plates at 37° C., 5% CO2 overnight. Day 2 • 1. Aspirate media from wells using Tecan plate washer. • 2. Fix cells by adding 20 μl/well of cold methanol (kept in −20° C. freezer). • 3. Incubate plates in 4° C. refrigerator for 10 minutes. • 4. Aspirate methanol using Tecan plate washer. • 5. Add 50 μl/well of primary Ab solution, (BD anti-SMN Ab diluted to 125 ng/ml in 10% fetal goat serum PBST), using multi-drop. • 6. Seal plates and incubate overnight at room temperature. Day 3 • 1. After 16-20 hrs incubation, wash plates with PBST 2× using Tecan plate washer. • 2. Add 50 μl of secondary Ab solution, (Santa Cruz goat anti-Mouse-HRP diluted to 67 ng/ml in 10% fetal goat serum PBST). • 3. Seal plates and incubate 2 hrs at room temperature. • 4. Wash plates with PBST 2× using Tecan plate washer. • 5. Add 50 μl/well 10% fetal goat serum PBST. • 6. Incubate in 4° C. refrigerator for 10 minutes. • 7. Aspirate plates using plate washer and add ECL luminescence solution, 20 μl/well. • 8. Measure luminescence on plate reader. Automated Scoring\nWe scored each compound based on the maximum signal-to-noise ratio (SNR) found among its dose curves. These scores are based on edge-corrected SMN data, using only plates that passed quality control. The untreated level on each plate was found by taking the median of the untreated wells, and for each treated well we calculated a log(T/U) ratio. Each curve was generated in triplicate on each plate, so each point on a compound's dose curve was obtained by determining the median for the replicate points. Each ratio thus has an error estimate from the scatter between the triplicate data points (1.5 times the median absolute deviation from the median). For each dose curve, we calculated the SNR for each data point log(T/U)/error, and chose the maximum point as our indicator of SMN induction activity. Since this is a signal-to-noise score, scores much greater than one indicate significant activity, assuming normal statistics. We decided to use a cutoff signal-to-noise ratio of 6. This selection represents a considerable enrichment towards visually-selected compounds. We identified 100 out of 2000 compounds producing scores >6. This included 13 of the 28 visual selections.", "key": {"[1]": {"conditions": "maximum signal-to-noise ratio log(T/U)/error among a compound's dose curves, SMN cytoblot, cutoff 6, column Scoring says Automated or Visual selection"}}, "note": "Where a name gives a salt, the structure may show the parent alone. Read-outs that look alike come from different tables or passages of the source.", "data": [{"compound": "CCCC(CCC)C(=O)O[C@H]1C[C@H]2CC[C@@H](C1)[N+]2(C)C", "note": "[Anisotropine Methylbromide]", "values": [{"measurement": "SNR", "setting": "[1]", "value": 6.43}]}, {"compound": "O=C1O[C@H]([C@@H](O)CO)C(O)=C1O", "note": "[Ascorbic Acid]", "values": [{"measurement": "SNR", "setting": "[1]", "value": 6.29}]}, {"compound": "NC[C@@H]1O[C@H](O[C@H]2[C@@H](O)[C@H](O[C@@H]3[C@@H](O)[C@H](N)C[C@H](N)[C@H]3O[C@H]3O[C@H](CO)[C@@H](O)[C@H](O)[C@H]3N)O[C@@H]2CO)[C@H](N)[C@@H](O)[C@@H]1O", "note": "[Paromomycin Sulfate]", "values": [{"measurement": "SNR", "setting": "[1]", "value": 11}]}, {"compound": "CNCCNS(=O)(=O)c1cccc2cnccc12", "note": "[H-8]", "values": [{"measurement": "SNR", "setting": "[1]", "value": 9.52}]}, {"compound": "CC1(C)S[C@@H]2[C@H](NC(=O)C(C(=O)O)c3ccccc3)C(=O)N2[C@H]1C(=O)O", "note": "(some centres unmarked) [Carbenicillin Disodium]", "values": [{"measurement": "SNR", "setting": "[1]", "value": 7.99}]}, {"compound": "Gentamicin Sulfate", "values": [{"measurement": "SNR", "setting": "[1]", "value": 14.9}]}, {"compound": "CN(C)[C@@H]1C(O)=C(C(N)=O)C(=O)[C@@]2(O)C(O)=C3C(=O)c4c(O)ccc(Cl)c4[C@@](C)(O)[C@H]3C[C@@H]12", "note": "[Chlortetracycline Hydrochloride]", "values": [{"measurement": "SNR", "setting": "[1]", "value": 10.4}]}, {"compound": "CC[C@@H](C(N)=O)N1CCCC1=O", "note": "[Levetiracetam]", "values": [{"measurement": "SNR", "setting": "[1]", "value": 7.74}]}, {"compound": "CC(C)(Oc1ccc(CCNC(=O)c2ccc(Cl)cc2)cc1)C(=O)O", "note": "[Bezafibrate]", "values": [{"measurement": "SNR", "setting": "[1]", "value": 7.38}]}, {"compound": "O=C(O)c1ccccc1OP(=O)(O)O", "note": "[Fosfosal]", "values": [{"measurement": "SNR", "setting": "[1]", "value": 6.77}]}, {"compound": "C1CNCCN1.O=C(O)CC(O)(CC(=O)O)C(=O)O", "note": "[Piperazine Citrate]", "values": [{"measurement": "SNR", "value": 6.68}]}, {"compound": "CCCC(CCC)C(=O)O", "note": "[Divalproex Sodium]", "values": [{"measurement": "SNR", "setting": "[1]", "value": 6.59}]}, {"compound": "CC1CCC(=CC(=O)O)CC1", "note": "(centres unmarked) [2-(4-methyl010cyclohexylidene) acetic acid]", "values": [{"measurement": "SNR", "setting": "[1]", "value": 6.16}]}, {"compound": "C=CCOc1ccccc1OCC(O)CNC(C)C", "note": "(centres unmarked) [Oxprenolol Hydrochloride]", "values": [{"measurement": "SNR", "setting": "[1]", "value": 6.52}]}, {"compound": "CC(Cc1cccc(C(F)(F)F)c1)NCCOC(=O)c1ccccc1", "note": "(centres unmarked) [Benfluorex Hydrochloride]", "values": [{"measurement": "SNR", "setting": "[1]", "value": 7.11}]}, {"compound": "CC(C)=CCCC(C)CC=O", "note": "(centres unmarked) [Citronellal]", "values": [{"measurement": "SNR", "setting": "[1]", "value": 8.6}]}, {"compound": "CC(C[N+](C)(C)C)OC(N)=O", "note": "(centres unmarked) [Bethanechol Chloride]", "values": [{"measurement": "SNR", "setting": "[1]", "value": 9.26}]}, {"compound": "C#CCN(C)Cc1ccccc1", "note": "[Pargyline]", "values": [{"measurement": "SNR", "setting": "[1]", "value": 6.52}]}, {"compound": "CC(CCc1ccc(O)cc1)NCCc1ccc(O)c(O)c1", "note": "(centres unmarked) [Dobutamine Hydrochloride]", "values": [{"measurement": "SNR", "setting": "[1]", "value": 6.47}]}, {"compound": "COc1ccc(CC(C)=O)cc1OC", "note": "[3,4-Dimethoxyphenylacetone]", "values": [{"measurement": "SNR", "setting": "[1]", "value": 7.25}]}, {"compound": "CN(CC(=O)O)C(=N)N", "note": "[Creatine]", "values": [{"measurement": "SNR", "setting": "[1]", "value": 8.34}]}, {"compound": "C/C=C/c1ccc(OC)cc1", "note": "[Trans-Anethole]", "values": [{"measurement": "SNR", "setting": "[1]", "value": 8.35}]}, {"compound": "CN(C)c1nc(N(C)C)nc(N(C)C)n1", "note": "[Altretamine]", "values": [{"measurement": "SNR", "setting": "[1]", "value": 10.2}]}]}
